Results from patent US9872912B2, “Method for treating pancreatic cancer” (CHINA MEDICAL UNIVERSITY, priority 2014, dated 2018).
Where “and” joins values, the source holds several entries; their conditions need not be identical. Equal values may be shown once.

What was measured:
PANC-1 = test: MTT cell survival rate, PANC-1; type: cell-based; conditions: Homo sapiens, PANC-1, 24 hours, read-out: IC50 (concentration of 50% inhibition)
Method: (§1) MTT (3-[4,5-dimethylthiahiazo-2-yl]-2,4-dipheny-tetrazolium bromide) was used to determine if the cell survival rate of different pancreatic cancer cell lines will be influenced when being treated with (Z)-butylidenephthalide. Human pancreatic cancer cell lines (3×10^3 cells/well), PANC-1 and PACA-2, were cultured in a 96-well micro-culture plate over night. Different concentrations of (Z)-butylidenephthalide (0 μg/ml, 10 μg/ml, 25 μg/ml, 50 μg/ml, 75 μg/ml, or 100 μg/ml) or (E)-butylidenephthalide (0 μg/ml, 50 μg/ml, 100 μg/ml, 200 μg/ml, 400 μg/ml, or 800 μg/ml), or 50 μM gemcitabine (a traditional medicine for treating pancreatic cancer, as a control group) were added into each well of the 96-well micro-culture plate along the inner wall, and cultured for 24 hours. The medium was removed, and then a medium containing 500 μg/ml MTT (200 μl) was added and cultured for 4 hours. The medium was removed, and then 200 μl of DMSO was added into the plate. The absorbance of the sample in each well was measured by a spectrophotometer at 570 nm wavelength. The data was calculated to determine the survival rate and IC50 (concentration of 50% inhibition) of each pancreatic cancer cell line treated with (Z)-butylidenephthalide and (E)-butylidenephthalide. The results are shown in FIG. 1A ((E)-butylidenephthalide) and FIG. 1B ((Z)-butylidenephthalide).

PACA-2 [1] = test: MTT cell survival rate, PACA-2; type: cell-based; conditions: Homo sapiens, PACA-2, 24 hours, read-out: IC50 (concentration of 50% inhibition)
Method: as §1

[2] = tested on: gene expression levels of NOR-1, Nurr1, and Nur77 in PANC-1; test: RT-PCR of apoptosis-related gene expression, PANC-1; type: cell-based, Human
Method: (§2) In this experiment, pancreatic cancer cell lines, PANC-1 and PACA-2, were treated with 100 μg/ml Z-BP for 0, 1, 3, 6, or 24 hours, and then, analyzed by reverse transcriptase-polymerase chain reaction (RT-PCR) (FIG. 6A) to analyze the effects of Z-BP on the gene expression levels of NOR-1, Nurr1, and Nur77 in the pancreatic cancer cell line. In addition, pancreatic cancer cell lines, PANC-1 and PACA-2, were treated with different concentrations of Z-BP for 3 hours, and then, analyzed by RT-PCR (FIG. 6B). The Glyceraldehyde 3-phosphate dehydrogenase (GAPDH) was used as the control group.

Nurr1 RNA in PACA-2 = test: Micro RNA interference test, RT-PCR of Nurr1 RNA in PACA-2; type: cell-based, human; conditions: PACA-2, 133 μM Z-BP
Method: The RNA expression of Nurr1 in the human pancreatic cancer cell line, PACA-2, was inhibited by Micro RNA interference technology. The cells were treated with 133 μM Z-BP. Then, the cells were analyzed by RT-PCR to detect the changes in the expression of Nurr1 RNA in the cells. As the results shown in FIG. 7A, when PACA-2 cells were treated with 50 nM Nurr1 micro RNA, about 50% of the Nurr1 induced by Z-BP was inhibited.

[3] = tested on: gene expression levels of NOR-1, Nurr1, and Nur77 in PACA-2; test: RT-PCR of apoptosis-related gene expression, PACA-2; type: cell-based, Human
Method: as §2

[4] = tested on: Nur77 gene pathway-related and apoptosis-related proteins in PACA-2; test: Western blotting of Nur77 pathway-related and apoptosis-related proteins in PACA-2; type: cell-based, Human
Method: Human pancreatic cancer cell line, PACA-2, […], and then the expression levels of the Nur77 gene involved pathway-related proteins were analyzed by Western blotting, including Pan-PKC, AKT, ERK, and JNK (FIG. 8A). In addition, the expression levels of apoptosis-related proteins were also analyzed, including poly(ADP-ribose) polymerase (PARP), cleaved poly(ADP-ribose) polymerase (cPARP), caspase-3 (FIG. 8B). β-actin was used as the control group.

PACA-2 [5] = test: Micro RNA interference test, cellular survival rate of PACA-2; type: cell-based, human; conditions: PACA-2, 133 μM Z-BP
Method: Human pancreatic cancer cell lines, PACA-2, was cultured with p(CPP-SA)-Z-BP comprising 0 w % (as a control group), 17.5 w %, or 25 w % (Z)-butylidenephthalide, respectively, for 24 hours, and then the tumor cell morphology and cellular survival rate were observed.
In addition, the human pancreatic cancer cell line, PACA-2, was treated with 10 nM or 50 nM of Nurr1 micro RNA, and then treated with 133 μM Z-BP. Then, the cellular survival rate was observed using the same method as described in Example 4.

[6] = PANC-1, 100 μg/ml Z-BP, 1 to 3 hours
[7] = PACA-2, 100 μg/ml Z-BP, 1 to 3 hours
[8] = PACA-2, Z-BP for 24 hours or 48 hours

Structure (SMILES) | IC50 (PANC-1) | IC50 (PACA-2 [1]) | mRNA expression level of NOR-1 [2, 6] | mRNA expression level of Nurr1 [2, 6] | mRNA expression level of Nurr1 ([2]; PANC-1, different concentrations of Z-BP, 3 hours) | expression of Nurr1 (Nurr1 RNA in PACA-2) | mRNA expression level of NOR-1 [3, 7] | mRNA expression level of Nurr1 [3, 7] | mRNA expression level of Nurr1 ([3]; PACA-2, different concentrations of Z-BP, 3 hours) | expression level of phospho-AKT (Pi-AKT) ([4]; PACA-2, Z-BP for 180 minutes) | expression level of phospho-JNK (Pi-SAPK/JNK) ([4]; PACA-2, Z-BP for 180 minutes) | expression level of PARP [4, 8] | expression level of cPARP [4, 8] | expression level of caspase-3 [4, 8] | cellular survival rate of PACA-2 cells (PACA-2 [5])
CCC/C=C1/OC(=O)c2ccccc21 [(E)-butylidenephthalide, reference compound] | ~257 µg/mL and ~1.37 mM | ~162 µg/mL and ~864 µM | – | – | – | – | – | – | – | – | – | – | – | – | –
CCC/C=C1\OC(=O)c2ccccc21 [(Z)-butylidenephthalide] | ~45 µg/mL and ~234 µM | ~25 µg/mL and ~133 µM | increased | increased | increased | increase the expression of Nurr1 | increased | increased | increased | increased | increased | increased | increased | increased | reduce the cellular survival rate
